Measurements taken from patent publication US20250228242A1 (priority 2021, published 2025).
Where a name gives a salt, the structure may show the parent alone.

Each molecule was assayed on P. infestans (assay: whole plant or invertebrate). Details: Phytophthora infestans, in Solanum tuberosum, read-out: P. infestans % inhibition.
Assay type: in vivo

Row | SMILES | inhibition at 100 µM
1 | COCCOC(=O)Nc1cccc(-c2nc(-c3ccc(OC)cc3)n[nH]2)c1 [Compound 139, 2-Methoxyethyl {3-[3-(4-methoxyphenyl)-1H-1,2,4-triazol-5-yl]phenyl}carbamate] | 48%
2 | COc1ccc(-c2n[nH]c(-c3ccc(Br)cc3)n2)cc1 [Compound 164, 5-(4-Bromophenyl)-3-(4-methoxyphenyl)-1H-1,2,4-triazole] | 8%
3 | COc1ccc(-c2n[nH]c(-c3cccc(N(C)C)c3)n2)cc1OC [Compound 105, 3-[3-(3,4-Dimethoxyphenyl)-1H-1,2,4-triazol-5-yl]-N,N-dimethylaniline] | 77%
4 | Cc1cc(F)ccc1-c1cnc(-c2cccc(NC(=O)[C@@H](N)CCC(N)=O)c2)o1 [Compound 131, (2S)-2-Amino-N1-{3-[5-(4-fluoro-2-methylphenyl)-1,3-oxazol-2-yl]phenyl}pentanediamide hydrochloride] | 47%
5 | CN1CCOc2cc(-c3nc(-c4cccc(N5CCOCC5)c4)no3)ccc21 [Compound 98, 4-Methyl-7-{3-[3-(morpholin-4-yl)phenyl]-1,2,4-oxadiazol-5-yl}-3,4-dihydro-2H-1,4-benzoxazine] | 22%
6 | FC(F)(F)c1cccc(-c2cc(-c3ccc4c(c3)OCCO4)n[nH]2)c1 [Compound 71, 3-(2,3-Dihydro-1,4-benzodioxin-6-yl)-5-[3-(trifluoromethyl)phenyl]-1H-pyrazole] | 36%
7 | COc1ccc(-c2nc(-c3ccc(C(F)(F)F)cc3)no2)cc1 [Compound 64, 5-(4-Methoxyphenyl)-3-[4-(trifluoromethyl)phenyl]-1,2,4-oxadiazole] | 23%
8 | CCOC(=O)c1cccc(-c2ncc(-c3ccc(C(F)(F)F)cc3OC)o2)c1 [Compound 121, Ethyl 3-{5-[2-methoxy-4-(trifluoromethyl)phenyl]-1,3-oxazol-2-yl}benzoate] | 28%
9 | Clc1ccc(-c2cc(-c3ccc4c(c3)OCCO4)n[nH]2)cc1 [Compound 111, 5-(4-Chlorophenyl)-3-(2,3-dihydro-1,4-benzodioxin-6-yl)-1H-pyrazole] | 24%
10 | Cc1cccc(-c2n[nH]c(-c3cccc(O)c3)n2)c1 [Compound 107, 5-(3-Hydroxyphenyl)-3-(3-methylphenyl)-1H-1,2,4-triazole] | 91%
11 | Oc1cc(Cl)cc(-c2nc(-c3ccc(OC(F)(F)F)cc3)co2)c1 [Compound 132, 2-(3-Chloro-5-hydroxyphenyl)-4-[4-(trifluoromethoxy)phenyl]-1,3-oxazole] | 66%
12 | Oc1ccc(-c2c[nH]c(-c3ccc(Cl)cc3)n2)cc1 [Compound 78, 2-(4-Chlorophenyl)-5-(4-hydroxyphenyl)-1H-imidazole] | 79%
13 | CN1CCOc2cc(-c3cc(-c4cccc(Br)c4)[nH]n3)ccc21 [Compound 44, 7-[5-(3-Bromophenyl)-1H-pyrazol-3-yl]-4-methyl-3,4-dihydro-2H-1,4-benzoxazine] | 5%
14 | CC(=O)Nc1ccc(-c2cc(-c3ccccc3F)no2)cc1 [Compound 46, N-{4-[3-(2-Fluorophenyl)-isoxazol-5-yl]phenyl}acetamide] | 7%
15 | Clc1ccc(-c2cc(-c3cccc(N4CCOCC4)c3)[nH]n2)cc1 [Compound 3, 4-{3-[3-(4-Chlorophenyl)-1H-pyrazol-5-yl]phenyl}morpholine] | 20%
16 | O=C(Nc1ccc(-c2nc(-c3ccc(OC(F)(F)F)cc3)n[nH]2)cc1)C(F)(F)F [Compound 61, 2,2,2-Trifluoro-N-(4-{5-[4-(trifluoromethoxy)phenyl]-1H-1,2,4-triazol-3-yl}phenyl)acetamide] | 71%

Row | SMILES | inhibition at 100 µM
17 | CCc1ccc(-c2c[nH]c(-c3ccc(NC(C)=O)cc3)n2)cc1 [Compound 155, N-{4-[4-(4-Ethylphenyl)-1H-imidazol-2-yl]phenyl}acetamide] | 16%
18 | Cc1ccc(-c2n[nH]c(-c3cccc(NC(=O)[C@@H](N)CC(C)C)c3)n2)cc1 [Compound 159, (2S)-2-Amino-N-{3-[3-(4-methylphenyl)-1H-1,2,4-triazol-5-yl]phenyl}-4-methylpentanamide] | 97%
19 | CCOC(=O)Nc1cccc(-c2c[nH]c(-c3ccc(F)cc3)n2)c1 [Compound 108, Ethyl {3-[2-(4-fluorophenyl)-1H-imidazol-5-yl]phenyl}carbamate] | 51%
20 | O=C(c1ccc(-c2n[nH]c(-c3ccc(Cl)cc3)n2)cc1)N1CCOCC1 [Compound 59, {4-[5-(4-Chlorophenyl)-1H-1,2,4-triazol-3-yl]phenyl}(morpholin-4-yl)methanone hydrochloride] | 87%
21 | O=C(Nc1ccc(-c2cc(-c3cccc(OC(F)(F)F)c3)n[nH]2)cc1)C(F)(F)F [Compound 128, 2,2,2-Trifluoro-N-(4-{5-[3-(trifluoromethoxy)phenyl]-1H-pyrazol-3-yl}phenyl)acetamide] | 6%
22 | CCc1ccc(-c2c[nH]c(-c3ccc(NS(C)(=O)=O)cc3)n2)cc1 [Compound 152] | 91%
23 | CCc1ccc(-c2c[nH]c(-c3ccc(NC(=O)OCCOC)cc3)n2)cc1 [Compound 154, 2-Methoxyethyl {4-[4-(4-ethylphenyl)-1H-imidazol-2-yl]phenyl}carbamate] | 89%
24 | CCc1ccc(-c2c[nH]c(-c3cccc(C(=O)N4CCN(C)CC4)c3)n2)cc1 [Compound 138, (4-Methylpiperazin-1-yl){3-[4-(4-ethylphenyl)-1H-imidazol-2-yl]phenyl}methanone] | 68%
25 | COCCNC(=O)Nc1ccc(-c2n[nH]c(-c3ccc(C(F)(F)F)cc3)n2)cc1 [Compound 82, 1-(2-Methoxyethyl)-3-(4-{5-[4-(trifluoromethyl)phenyl]-1H-1,2,4-triazol-3-yl}phenyl)urea] | 18%
26 | CSc1ccc(-c2nc(-c3ccc(C(=O)O)cc3)no2)cc1 [Compound 96, 4-{5-[4-(Methylsulfanyl)phenyl]-1,2,4-oxadiazol-3-yl}benzoic acid] | 4%
27 | CCOC(=O)c1ccc(-c2noc(-c3ccc(SC)cc3)n2)cc1 [Compound 95, Ethyl 4-{5-[4-(methylsulfanyl)phenyl]-1,2,4-oxadiazol-3-yl}benzoate] | 9%
28 | CN1CCN(c2cccc(-c3nc(-c4ccc5c(c4)OCCO5)co3)c2)CC1 [Compound 114, 1-Methyl-4-{3-[4-(2,3-dihydro-1,4-benzodioxin-6-yl)-1,3-oxazol-2-yl]phenyl}piperazine] | 93%
29 | Cc1cccc(-c2nc(-c3cccc(F)c3)c[nH]2)c1 [Compound 150, 4-(3-Fluorophenyl)-2-(3-methylphenyl)-1H-imidazole] | 91%
30 | O=C(Nc1ccccc1)Nc1ccc(-c2nc(-c3cccc(C(F)(F)F)c3)no2)cc1 [Compound 94, 1-Phenyl-3-(4-{3-[3-(trifluoromethyl)phenyl]-1,2,4-oxadiazol-5-yl}phenyl)urea] | 9%
31 | COc1ccc(-c2nc(-c3cccc(Cl)c3)n[nH]2)cc1OC [Compound 158, 3-(3-Chlorophenyl)-5-(3,4-dimethoxyphenyl)-1H-1,2,4-triazole] | 59%
32 | O=C(c1cccc(-c2nc(-c3cccc(F)c3)n[nH]2)c1)N1CCOCC1 [Compound 163, {3-[3-(3-Fluorophenyl)-1H-1,2,4-triazol-5-yl]phenyl}(morpholin-4-yl)methanone] | 22%
